Laboratory results published in patent publication US10005818B2, “Derivative peptide compounds and methods of use” (REALTA HOLDINGS, LLC, priority 2010, dated 2018).
Square brackets hold non-standard residues; d marks the D form. Peptide text beside a SMILES is read from it. Sar = CNCC(=O)O

Key:
[1] = test system: complement activation in factor B-depleted human sera; format: biochemical
Experimental: Peptides were diluted to 0.77 mM in factor B-depleted human sera (Complement Technologies, Inc.) and incubated for 1 hour at 37° C. These peptides were then diluted with GVBS^++ to equal 2.5/s serum, of which 0.25 ml was combined with 0.4 ml of GVBS^++ and 0.1 ml of sensitized sheep red blood cells (RBCs) and again incubated for 1 hour at 37° C. The procedure was stopped by the addition of 4.0 ml of GVBS^−−, centrifuged for 5 minutes at 1,620×g, and the absorbance of the supernatants was read at 412 nm in a spectrophotometer. The percent lysis of each sample was standardized to that of the serum only control.
The final concentration of peptide in factor B-depleted serum was 0.77 mM. Each peptide was evaluated in triplicate and the mean values are reported. […] In the hemolytic assay, soluble peptides are standardized to water and insoluble peptides standardized to DMSO.
Polar Assortant peptides were serially diluted in undiluted factor B-depleted human sera (Complement Technologies, Inc.) and incubated for 1 hour at 37° C. Water, GVBS^++ and DMSO were included as controls. These peptides were then diluted with GVBS^++ to equal 2.5/s serum, of which 0.25 ml was combined with 0.4 ml of GVBS^++ and 0.1 ml of sensitized sheep red blood cells (RBCs) and again incubated for 1 hour at 37° C. The procedure was stopped by the addition of 4.0 ml of GVBS^−−, centrifuged for 5 minutes at 1,620×g, and the absorbance of the supernatants was read at 412 nm in a spectrophotometer. The percent lysis of each sample was standardized to that of the serum only control.
The final concentration of peptide in factor B-depleted serum was 0.77 mM. […] In the hemolytic assay, soluble peptides were standardized to water and insoluble peptides standardized to DMSO.
The final concentration of peptide in factor B-depleted serum was 0.77 mM. […] In the hemolytic assay, soluble peptides are standardized to water and insoluble peptides standardized to DMSO.

Solubility in water = format: physicochemical
[2] = Table 7, PEGylated and sarcosine/alanine substitution peptides

| SMILES | Hemolysis (%) [1] | Solubility in water (Solubility in water; [2]) | Solubility in water (Solubility in water; Table 5, sarcosine substitution peptides) |
| --- | --- | --- | --- |
| CC[C@H](C)[C@H](N)C(=O)N[C@@H](C)C(=O)N[C@@H](CC(C)C)C(=O)N[C@H](C(=O)N[C@@H](CC(C)C)C(=O)N[C@@H](CCC(=O)O)C(=O)N1CCC[C@H]1C(=O)N[C@H](C(=O)N[C@@H](CS)C(=O)N[C@@H](CS)C(=O)N(C)CC(=O)N[C@@H](CCC(=O)O)C(=O)N[C@@H](CCCNC(=N)N)C(=O)N[C@@H](C)C(=O)N[C@@H](C)C(=O)NCCOCCOCCOCCOCCOCCOCCOCCOCCOCCOCCOCCOCCOCCOCCOCCOCCOCCOCCOCCOCCOCCOCCOCCOCCC(=O)O)[C@@H](C)CC)[C@@H](C)CC [PA-Q11Sar-dPEG24] | 12.04% | Yes | – |
| CC[C@H](C)[C@H](N)C(=O)N[C@@H](C)C(=O)N[C@@H](CC(C)C)C(=O)N[C@H](C(=O)N[C@@H](CC(C)C)C(=O)N[C@@H](CCC(=O)O)C(=O)N1CCC[C@H]1C(=O)N[C@H](C(=O)N[C@@H](CS)C(=O)N[C@@H](CS)C(=O)N[C@@H](CCC(N)=O)C(=O)N[C@@H](CCC(=O)O)C(=O)N(C)CC(=O)N[C@@H](C)C(=O)N[C@@H](C)C(=O)NCCOCCOCCOCCOCCOCCOCCOCCOCCOCCOCCOCCOCCOCCOCCOCCOCCOCCOCCOCCOCCOCCOCCOCCOCCC(=O)O)[C@@H](C)CC)[C@@H](C)CC [PA-R13Sar-dPEG24] | 4.26% | Yes | – |
| CC[C@H](C)[C@H](N)C(=O)N[C@@H](C)C(=O)N[C@@H](CC(C)C)C(=O)N[C@H](C(=O)N[C@@H](CC(C)C)C(=O)N[C@@H](CCC(=O)O)C(=O)N1CCC[C@H]1C(=O)N[C@H](C(=O)N[C@@H](CS)C(=O)N[C@@H](CS)C(=O)N[C@@H](CCC(N)=O)C(=O)N[C@@H](CCC(=O)O)C(=O)N(C)CC(=O)N[C@@H](C)C(=O)N[C@@H](C)C(=O)O)[C@@H](C)CC)[C@@H](C)CC [PA-R13Sar] | 3.42% | – | No |
| CC[C@H](C)[C@H](N)C(=O)N[C@@H](C)C(=O)N[C@@H](CC(C)C)C(=O)N[C@H](C(=O)N[C@@H](CC(C)C)C(=O)N[C@@H](CCC(=O)O)C(=O)N1CCC[C@H]1C(=O)N[C@H](C(=O)N(C)CC(=O)N[C@@H](CS)C(=O)N[C@@H](CCC(N)=O)C(=O)N[C@@H](CCC(=O)O)C(=O)N[C@@H](CCCNC(=N)N)C(=O)N(C)CC(=O)N[C@@H](C)C(=O)O)[C@@H](C)CC)[C@@H](C)CC [Peptide A14SarC9Sar] (H-IALILEPI[Sar]CQER[Sar]A-OH) | 14.73% | No | – |
| CC[C@H](C)[C@H](N)C(=O)N[C@@H](C)C(=O)N[C@@H](CC(C)C)C(=O)N[C@H](C(=O)N[C@@H](CC(C)C)C(=O)N[C@@H](CCC(=O)O)C(=O)N(C)CC(=O)N[C@H](C(=O)N[C@@H](CS)C(=O)N[C@@H](CS)C(=O)N[C@@H](CCC(N)=O)C(=O)N[C@@H](CCC(=O)O)C(=O)N[C@@H](CCCNC(=N)N)C(=O)N(C)CC(=O)N[C@@H](C)C(=O)O)[C@@H](C)CC)[C@@H](C)CC [Peptide A14SarP7Sar, IALILE(Sar)ICCQER(Sar)A] (H-IALILE[Sar]ICCQER[Sar]A-OH; N-terminus and C-terminus assumed) | 4.37% | Yes | – |
| CC[C@H](C)[C@H](N)C(=O)N[C@@H](C)C(=O)N[C@@H](CC(C)C)C(=O)N[C@H](C(=O)N[C@@H](CC(C)C)C(=O)N[C@@H](C)C(=O)N1CCC[C@H]1C(=O)N[C@H](C(=O)N(C)CC(=O)N[C@@H](CS)C(=O)N[C@@H](CCC(N)=O)C(=O)N[C@@H](C)C(=O)N[C@@H](CCCNC(=N)N)C(=O)N[C@@H](C)C(=O)N[C@@H](C)C(=O)O)[C@@H](C)CC)[C@@H](C)CC [Peptide E6AE12AC9Sar] (H-IALILAPI[Sar]CQARAA-OH) | 2.99% | No | – |
| CC[C@H](C)[C@H](N)C(=O)N[C@@H](C)C(=O)N[C@@H](CC(C)C)C(=O)N[C@H](C(=O)N[C@@H](CC(C)C)C(=O)N[C@@H](C)C(=O)N(C)CC(=O)N[C@H](C(=O)N[C@@H](CS)C(=O)N[C@@H](CS)C(=O)N[C@@H](CCC(N)=O)C(=O)N[C@@H](C)C(=O)N[C@@H](CCCNC(=N)N)C(=O)N[C@@H](C)C(=O)N[C@@H](C)C(=O)O)[C@@H](C)CC)[C@@H](C)CC [Peptide E6AE12AP7Sar] (H-IALILA[Sar]ICCQARAA-OH; N-terminus and C-terminus assumed) | 4.60% | Yes | – |
| CC[C@H](C)[C@H](N)C(=O)N[C@@H](C)C(=O)N[C@@H](CC(C)C)C(=O)N[C@H](C(=O)N[C@@H](CC(C)C)C(=O)N(C)CC(=O)N1CCC[C@H]1C(=O)N[C@H](C(=O)N(C)CC(=O)N[C@@H](CS)C(=O)N[C@@H](CCC(N)=O)C(=O)N[C@@H](CCC(=O)O)C(=O)N[C@@H](CCCNC(=N)N)C(=O)N[C@@H](C)C(=O)N[C@@H](C)C(=O)O)[C@@H](C)CC)[C@@H](C)CC [Peptide E6SarC9Sar, IALIL(Sar)PI(Sar)CQERAA] (H-IALIL[Sar]PI[Sar]CQERAA-OH) | 6.21% | Yes | – |
| CC[C@H](C)[C@H](N)C(=O)N[C@@H](C)C(=O)N[C@@H](CC(C)C)C(=O)N[C@H](C(=O)N[C@@H](CC(C)C)C(=O)N(C)CC(=O)N(C)CC(=O)N[C@H](C(=O)N[C@@H](CS)C(=O)N[C@@H](CS)C(=O)N[C@@H](CCC(N)=O)C(=O)N[C@@H](CCC(=O)O)C(=O)N[C@@H](CCCNC(=N)N)C(=O)N[C@@H](C)C(=O)N[C@@H](C)C(=O)O)[C@@H](C)CC)[C@@H](C)CC [Peptide E6SarP7Sar] (H-IALIL[Sar][Sar]ICCQERAA-OH; N-terminus and C-terminus assumed) | 3.57% | Yes | – |
| CC[C@H](C)[C@H](N)C(=O)N[C@@H](C)C(=O)N[C@@H](CC(C)C)C(=O)N[C@H](C(=O)N[C@@H](CC(C)C)C(=O)N[C@@H](CCC(=O)O)C(=O)N1CCC[C@H]1C(=O)N[C@H](C(=O)N(C)CC(=O)N[C@@H](CS)C(=O)N(C)CC(=O)N[C@@H](CCC(=O)O)C(=O)N[C@@H](CCCNC(=N)N)C(=O)N[C@@H](C)C(=O)N[C@@H](C)C(=O)O)[C@@H](C)CC)[C@@H](C)CC [Peptide Q11SarC9Sar] (H-IALILEPI[Sar]C[Sar]ERAA-OH) | 15.42% | Yes | – |
| CC[C@H](C)[C@H](N)C(=O)N[C@@H](C)C(=O)N[C@@H](CC(C)C)C(=O)N[C@H](C(=O)N[C@@H](CC(C)C)C(=O)N[C@@H](CCC(=O)O)C(=O)N(C)CC(=O)N[C@H](C(=O)N[C@@H](CS)C(=O)N[C@@H](CS)C(=O)N(C)CC(=O)N[C@@H](CCC(=O)O)C(=O)N[C@@H](CCCNC(=N)N)C(=O)N[C@@H](C)C(=O)N[C@@H](C)C(=O)O)[C@@H](C)CC)[C@@H](C)CC [Peptide Q11SarP7Sar, IALILE(Sar)ICC(Sar)ERAA] (H-IALILE[Sar]ICC[Sar]ERAA-OH; N-terminus and C-terminus assumed) | 3.22% | Yes | – |
| CC[C@H](C)[C@H](N)C(=O)N[C@@H](C)C(=O)N[C@@H](CC(C)C)C(=O)N[C@H](C(=O)N[C@@H](CC(C)C)C(=O)N[C@@H](CCC(=O)O)C(=O)N1CCC[C@H]1C(=O)N[C@H](C(=O)N(C)CC(=O)N[C@@H](CS)C(=O)N[C@@H](CCC(N)=O)C(=O)N[C@@H](CCC(=O)O)C(=O)N(C)CC(=O)N[C@@H](C)C(=O)N[C@@H](C)C(=O)O)[C@@H](C)CC)[C@@H](C)CC [Peptide R13SarC9Sar] (H-IALILEPI[Sar]CQE[Sar]AA-OH) | 84.81% | No | – |
